Measured values: paper PMC11822212, “High-throughput screening identifies Aurora kinase B as a critical therapeutic target for Merkel cell carcinoma” (Nature Communications, 2025)
Like-named read-outs stand apart in the source and are kept apart here.

Assays:
MKL-1 cells (VP-MCC) = experiment: qHTS cell viability (CellTiter-Glo, 72 h; primary and follow-up small molecule screen); format: cell-based, human
HACAT cells = experiment: qHTS cell viability (CellTiter-Glo, 72 h; primary screen), control cell line; format: cell-based, human
WAGA cells (VP-MCC) = experiment: qHTS cell viability (CellTiter-Glo, 72 h; primary and follow-up small molecule screen); format: cell-based, human
MCC13 cells (VN-MCC) = experiment: as above; format: cell-based, human
MCC26 cells (VN-MCC) = experiment: as above; format: cell-based, human
[1] = system: six MCC cell lines and four control cell lines; experiment: qHTS cell viability, all 10 cell lines screened; format: cell-based
HEK293T cells = experiment: qHTS cell viability (CellTiter-Glo, 72 h; primary screen), control cell line; format: cell-based, human
UISO cells (VN-MCC) = experiment: qHTS cell viability (CellTiter-Glo, 72 h; primary and follow-up small molecule screen); format: cell-based, human
[2] = system: VN-MCC cell lines (MCC13, MCC26, UISO); experiment: qHTS cell viability, VN-MCC cell lines as a group (mean AUC, VN.MCC.avg); format: cell-based, human
MKL-2 cells (VP-MCC) = experiment: qHTS cell viability (CellTiter-Glo, 72 h; primary and follow-up small molecule screen); format: cell-based, human
CRL-7250 cells = experiment: qHTS cell viability (CellTiter-Glo, 72 h; primary screen), control cell line; format: cell-based
NIH-3T3 cells = experiment: as above; format: cell-based, mouse
[3] = system: control cell lines (HACAT, HEK293T, CRL-7250, NIH-3T3); experiment: qHTS cell viability, control cell lines as a group (mean AUC, Control.avg); format: cell-based
[4] = system: VP-MCC cell lines (WAGA, MKL-1, MKL-2); experiment: qHTS cell viability, VP-MCC cell lines as a group (mean AUC, VP.MCC.avg); format: cell-based, human
[5] = system: MCC cell lines (WAGA, MKL-1, MKL-2, MCC13, MCC26, UISO); experiment: qHTS cell viability, all six MCC cell lines as a group (mean AUC, MCC.avg); format: cell-based, human
[6] = MIPE library, 11-point DRC, sheet S2E
[7] = MIPE library, 11-point DRC, control cell line, sheet S2E
[8] = MIPE library, Control AUC minus MCC AUC (therapeutic window), sheet S2E
[9] = MIPE library, Control AUC minus VN-MCC AUC (therapeutic window), sheet S2E
[10] = MIPE library, mean AUC of VN-MCC cell lines, sheet S2E
[11] = MIPE library, mean AUC of control cell lines, sheet S2E
[12] = MIPE library, Control AUC minus VP-MCC AUC (therapeutic window), sheet S2E
[13] = MIPE library, mean AUC of VP-MCC cell lines, sheet S2E
[14] = MIPE library, mean AUC of six MCC cell lines, sheet S2E

## CC(C)(C)OC(=O)Nc1ccc(-c2cc(C(=O)NCCCCCCC(=O)NO)no2)cc1 [ISOX]
MKL-1 cells (VP-MCC); [6]
  MKL1_AUC: 349.979
HACAT cells; [7]
  HACAT_AUC: 439.928
WAGA cells (VP-MCC); [6]
  WAGA_AUC: 354.914
MCC13 cells (VN-MCC); [6]
  MCC13_AUC: 413.98
MCC26 cells (VN-MCC); [6]
  MCC26_AUC: 447.653
[1]; [8]
  Control-MCC: 15.5032
HEK293T cells; [7]
  HEK293T_AUC: 382.485
UISO cells (VN-MCC); [6]
  UISO_AUC: 418.415
[2]; [9]
  Control-VN-MCC: -20.9846
[2]; [10]
  VN-MCC_Avg_AUC: 426.683
MKL-2 cells (VP-MCC); [6]
  MKL2_AUC: 356.229
CRL-7250 cells; [7]
  CRL7250_AUC: 411.627
NIH-3T3 cells; [7]
  NIH3T3_AUC: 388.752
[3]; [11]
  Control_Avg_AUC: 405.698
[4]; [12]
  Control-VP-MCC: 51.9911
[4]; [13]
  VP-MCC_Avg_AUC: 353.707
[5]; [14]
  MCC_Avg_AUC: 390.195

## CCOc1cc(N2CCC(O)CC2)ccc1Nc1ncc2c(n1)N(C)c1ccccc1C(=O)N2C [XMD8-92]
MKL-1 cells (VP-MCC)
  MKL1_AUC: 404.412
HACAT cells
  HACAT_AUC: 464.723
WAGA cells (VP-MCC)
  WAGA_AUC: 403.248
MCC13 cells (VN-MCC)
  MCC13_AUC: 476.46
MCC26 cells (VN-MCC)
  MCC26_AUC: 462.249
[1]
  Control-MCC: 31.2771
HEK293T cells
  HEK293T_AUC: 449.91
UISO cells (VN-MCC)
  UISO_AUC: 455.545
[2]
  Control-VN-MCC: -5.684
  VN-MCC_Avg_AUC: 464.751
MKL-2 cells (VP-MCC)
  MKL2_AUC: 364.829
CRL-7250 cells
  CRL7250_AUC: 459.588
NIH-3T3 cells
  NIH3T3_AUC: 462.049
[3]
  Control_Avg_AUC: 459.068
[4]
  Control-VP-MCC: 68.2382
  VP-MCC_Avg_AUC: 390.829
[5]
  MCC_Avg_AUC: 427.79

## COc1cc(/C=C/C(=O)CC(=O)/C=C/c2ccc(O)c(OC)c2)ccc1O [Curcumin]
MKL-1 cells (VP-MCC); [6]
  MKL1_AUC: 382.508
HACAT cells; [7]
  HACAT_AUC: 459.473
WAGA cells (VP-MCC); [6]
  WAGA_AUC: 392.592
MCC13 cells (VN-MCC); [6]
  MCC13_AUC: 449.9
MCC26 cells (VN-MCC); [6]
  MCC26_AUC: 458.412
[1]; [8]
  Control-MCC: 27.7437
HEK293T cells; [7]
  HEK293T_AUC: 422.758
UISO cells (VN-MCC); [6]
  UISO_AUC: 416.827
[2]; [9]
  Control-VN-MCC: -6.83
[2]; [10]
  VN-MCC_Avg_AUC: 441.713
MKL-2 cells (VP-MCC); [6]
  MKL2_AUC: 342.595
CRL-7250 cells; [7]
  CRL7250_AUC: 433.368
NIH-3T3 cells; [7]
  NIH3T3_AUC: 423.932
[3]; [11]
  Control_Avg_AUC: 434.883
[4]; [12]
  Control-VP-MCC: 62.3178
[4]; [13]
  VP-MCC_Avg_AUC: 372.565
[5]; [14]
  MCC_Avg_AUC: 407.139

## CCOC(=O)N1CCC(=C2c3ccc(Cl)cc3CCc3cccnc32)CC1 [Loratadine]
[1]; NPC library, therapeutic window: Control avg AUC minus MCC avg AUC
  Control-MCC: 51.602
[2]; NPC library, therapeutic window: Control avg AUC minus VN-MCC avg AUC
  Control-VN-MCC: 36.1824
[4]; NPC library, therapeutic window: Control avg AUC minus VP-MCC avg AUC
  Control-VP-MCC: 67.0216

## CCc1c2c(nc3ccc(OC(=O)N4CCC(N5CCCCC5)CC4)cc13)-c1cc3c(c(=O)n1C2)COC(=O)[C@]3(O)CC.Cl [Irinotecan hydrochloride]
[1]
  Control-MCC: 69.4165
[2]
  Control-VN-MCC: 24.3005
[4]
  Control-VP-MCC: 114.533
